Data taken from patent US20250066736A1, “HIGH-THROUGHPUT 3D CELL SPHEROID CULTURE CHIP, PREPARATION PROCESS AND USES THEREOF” (National Taiwan University, priority 2023, published 2025).

System: hepatocytes
Assay: In vitro liver fibrosis/toxicity model: relative cell viability of hepatocytes with CCl4-induced injury
Type: cell-based, Sprague Dawley rats
Conditions: for relative cell viability: 24 h (day 1)
Experimental: The procedure regarding in vitro liver fibrosis model is as follows. To create an in vitro toxicity model, we used CCl4 as a known hepatotoxic agent capable of inducing severe hepatotoxicity, ultimately leading to liver fibrosis. Initially, a stock solution of CCl4 was prepared by dissolving it in DMSO to a concentration of 20%. Subsequently, hepatocytes were aliquoted into 15-mL centrifuge tubes. These hepatocytes were subjected to a 10-min toxication process with CCl4 (0.05, 0.075, 0.1, 0.15, 0.2%)-containing culture medium (serum-free). Subsequently, hepatocytes were washed three times with PBS with centrifugation at 50×g for 1 min at 4° C. Thereafter, the supernatant was carefully removed, and the final cell pellet was seeded onto 0.1 mg/mL collagen-coated Petri dish at a density of 5×10^5 cells/mL.
The procedure regarding relative cell viability and liver-specific function of in vitro HUVEC-covered hepatocyte spheroids embedded in gel cultures is as follows. To assess relative cell viability, separate media formulations were used for 2D dish and 3D gel cultures. Specifically, 10% MTT-containing medium was used for the 2D dish culture, whereas 10% CCK8-containing medium was used for evaluating the cell viability in 3D hydrogel or spheroids. For MTT analysis, after 4-h incubation, half of the supernatant was removed from each well, and an equivalent volume of DMSO was added. Following an additional 10 min of incubation, absorbance was measured at 570 nm. For CCK8 analysis, after 4 h of incubation, 100 μL of the supernatant was transferred to a 96-well plate, and absorbance was measured at 450 nm. To calculate relative cell viability from days 1 to 14, the absorbance value of hepatocytes (or hepatocyte spheroids) in the control group (only gel without cells) measured on day 1 was used as baseline (blank) to exclude the influence of the gel. The absorbance value of each experimental condition was then divided by the value of the blank to obtain relative cell viability.

For `ClC(Cl)(Cl)Cl` [CCl4, Carbon tetrachloride], the relative cell viability (CCl4 concentration 0.05%) was 60.53%±3.19%, the relative cell viability (CCl4 concentration 0.075%) was 51.70%±5.99% and the relative cell viability (CCl4 concentration 0.1%) was 28.06%±2.29%. The relative cell viability (CCl4 concentration 0.15%) was 2.67%±0.25%, the relative cell viability (CCl4 concentration 0.2%) was 2.46%±0.63% and the “half-maximal inhibitory concentration (IC50) for hepatocytes” value (estimated from viability at 24 h) was 0.075%.
